Measured values taken from ChEMBL document CHEMBL6078645, “Expanding the Solvent/Protein Region Occupation of the Non-Nucleoside Reverse Transcriptase Inhibitor Binding Pocket for Improved Broad-Spectrum Anti-HIV-1 Efficacy: from Rigid Phenyl-Diarylpyrimidines to Flexible Hydrophilic Piperidine-Diarylpyrimidines” (J Med Chem, 2024).
Converted amounts (≈) assume the structure as drawn.

Columns and labels:
[1] = Acute toxicity in SPF ICR mouse assessed as lung damage at 2 mg/kg, IG measured on day 14; assay type: organism-based; conditions: in vivo, po, 336 h, time 14 day
[2] = Acute toxicity in SPF ICR mouse assessed as pathological change in spleen at 2 mg/kg, IG measured on day 14; assay type: organism-based; conditions: in vivo, po, 336 h, time 14 day
[3] = Acute toxicity in SPF ICR mouse assessed as distress at 2 mg/kg, IG measured for 2 weeks; assay type: organism-based; conditions: in vivo, po, 336 h
[4] = test system: Human immunodeficiency virus 1; assay: Antiviral activity against HIV-1 harboring F227L/V106A double mutant infected in human MT4 cells assessed as protection against virus-induced cytopathic effect incubated for 5 days by MTT assay; assay type: functional, organism-based; conditions: Human immunodeficiency virus 1, MT4, 120 h
[5] = test system: Human immunodeficiency virus 1; assay: Antiviral activity against HIV-1 harboring RES056 mutant infected in human MT4 cells assessed as protection against virus-induced cytopathic effect incubated for 5 days by MTT assay; assay type: functional, organism-based; conditions: Human immunodeficiency virus 1, MT4, 120 h
[6] = Acute toxicity in SPF ICR mouse assessed as pathological change in liver at 2 mg/kg, IG measured on day 14; assay type: organism-based; conditions: in vivo, po, 336 h, time 14 day
[7] = test system: Human immunodeficiency virus 1; assay: Antiviral activity against HIV-1 harboring K103N mutant infected in human MT4 cells assessed as protection against virus-induced cytopathic effect incubated for 5 days by MTT assay; assay type: functional, organism-based; conditions: Human immunodeficiency virus 1, MT4, 120 h
[8] = Cytotoxicity against human MT4 cells assessed as reduction in cell viability incubated for 5 days by MTT assay; assay type: toxicity, cell-based; conditions: MT4 cells, time 5 day
[9] = Acute toxicity in SPF ICR mouse assessed as pathological change in heart at 2 mg/kg, IG measured on day 14; assay type: organism-based; conditions: in vivo, po, 336 h, time 14 day
[10] = Solubility of compound in phosphate buffer at pH 7 incubated for 24 hrs by HPLC analysis; assay type: physicochemical
[11] = test system: Human immunodeficiency virus 1; assay: Antiviral activity against HIV-1 harboring E138K mutant infected in human MT4 cells assessed as protection against virus-induced cytopathic effect incubated for 5 days by MTT assay; assay type: functional, organism-based; conditions: Human immunodeficiency virus 1, MT4, 120 h
[12] = Acute toxicity in SPF ICR mouse assessed as liver damage at 2 mg/kg, IG measured on day 14; assay type: organism-based; conditions: in vivo, po, 336 h, time 14 day
[13] = Acute toxicity in SPF ICR mouse assessed as pathological change in kidney at 2 mg/kg, IG measured on day 14; assay type: organism-based; conditions: in vivo, po, 336 h, time 14 day
[14] = Solubility of compound in phosphate buffer at pH 7.4 incubated for 24 hrs by HPLC analysis; assay type: physicochemical
[15] = Acute toxicity in SPF ICR mouse assessed as brain damage at 2 mg/kg, IG measured on day 14; assay type: organism-based; conditions: in vivo, po, 336 h, time 14 day
Cytochrome P450 2C9 = Cytochrome P450 2C9 (Homo sapiens, UniProt P11712); assay: Inhibition of CYP2C9 in human liver microsome preincubated with compound for 10 minutes followed NADPH addition and measured after 15 mins by LC-MS/MS analysis; assay type: ADME, microsomes
[16] = Solubility of compound in phosphate buffer at pH 2 incubated for 24 hrs by HPLC analysis; assay type: physicochemical
[17] = Acute toxicity in SPF ICR mouse assessed as kidney damage at 2 mg/kg, IG measured on day 14; assay type: organism-based; conditions: in vivo, po, 336 h, time 14 day
Cytochrome P450 2C19 = Cytochrome P450 2C19 (Homo sapiens, UniProt P33261); assay: Inhibition of CYP2C19 in human liver microsome preincubated with compound for 10 minutes followed NADPH addition and measured after 15 mins by LC-MS/MS analysis; assay type: ADME, microsomes
Cytochrome P450 3A4 [18] = biological target: T1, Cytochrome P450 3A4 (Homo sapiens, UniProt P08684); assay: Inhibition of CYP3A4 in human liver microsome using midazolam as substrate preincubated with compound for 10 minutes followed NADPH addition and measured after 15 mins by LC-MS/MS analysis; assay type: ADME, microsomes
[19] = Acute toxicity in SPF ICR mouse assessed as mortality at 2 mg/kg, IG measured for 2 weeks; assay type: organism-based; conditions: in vivo, po, 336 h
[20] = test system: Human immunodeficiency virus 1; assay: Antiviral activity against HIV-1 harboring Y181C mutant infected in human MT4 cells assessed as protection against virus-induced cytopathic effect incubated for 5 days by MTT assay; assay type: functional, organism-based; conditions: Human immunodeficiency virus 1, MT4, 120 h
[21] = Solubility of compound incubated for 24 hrs by HPLC analysis; assay type: physicochemical
[22] = Selectivity index, ratio of CC50 for cytotoxicity against human MT4 cells assessed as reduction in cell viability to EC50 for antiviral activity against wild type HIV-1 IIIB infected in human MT4 cells assessed as protection against virus-induced cytopathic effect; assay type: toxicity, cell-based; conditions: MT4 cells, read-out: Ratio CC50/EC50
Cytochrome P450 1A2 = biological target: T2, Cytochrome P450 1A2 (Homo sapiens, UniProt P05177); assay: Inhibition of CYP1A2 in human liver microsome preincubated with compound for 10 minutes followed NADPH addition and measured after 15 mins by LC-MS/MS analysis; assay type: ADME, microsomes
T2 sequence (P05177 whole entry): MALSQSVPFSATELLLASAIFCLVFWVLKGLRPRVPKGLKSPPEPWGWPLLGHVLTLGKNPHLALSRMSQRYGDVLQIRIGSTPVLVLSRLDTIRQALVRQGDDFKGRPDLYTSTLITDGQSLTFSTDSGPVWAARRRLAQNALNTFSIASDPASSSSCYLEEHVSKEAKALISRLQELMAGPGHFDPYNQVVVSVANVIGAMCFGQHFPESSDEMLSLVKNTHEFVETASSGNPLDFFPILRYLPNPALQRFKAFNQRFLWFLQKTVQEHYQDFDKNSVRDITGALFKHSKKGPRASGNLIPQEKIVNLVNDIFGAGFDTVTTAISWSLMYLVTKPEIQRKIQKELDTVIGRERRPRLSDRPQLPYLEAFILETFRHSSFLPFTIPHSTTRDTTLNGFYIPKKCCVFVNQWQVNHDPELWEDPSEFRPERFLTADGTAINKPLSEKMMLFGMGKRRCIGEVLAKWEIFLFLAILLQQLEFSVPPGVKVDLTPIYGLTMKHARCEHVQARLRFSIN

[23] = test system: Human immunodeficiency virus 1; assay: Antiviral activity against HIV-1 harboring Y188L mutant infected in human MT4 cells assessed as protection against virus-induced cytopathic effect incubated for 5 days by MTT assay; assay type: functional, organism-based; conditions: Human immunodeficiency virus 1, MT4, 120 h
Cytochrome P450 3A4 [24] = biological target: T1, Cytochrome P450 3A4; assay: Inhibition of CYP3A4 in human liver microsome using testosterone as substrate preincubated with compound for 10 minutes followed NADPH addition and measured after 15 mins by LC-MS/MS analysis; assay type: ADME, microsomes
[25] = biological target: T3, Human immunodeficiency virus type 1 reverse transcriptase (Human immunodeficiency virus 1, UniProt Q72547); assay: Inhibition of wildtype recombinant HIV-1 Reverse transcriptase incubated for 40 mins by spectrofluorometric analysis
[26] = Acute toxicity in SPF ICR mouse assessed as pathological change in brain at 2 mg/kg, IG measured on day 14; assay type: organism-based; conditions: in vivo, po, 336 h, time 14 day
[27] = Acute toxicity in SPF ICR mouse assessed as pathological change in lung at 2 mg/kg, IG measured on day 14; assay type: organism-based; conditions: in vivo, po, 336 h, time 14 day
[28] = Acute toxicity in SPF ICR mouse assessed as heart damage at 2 mg/kg, IG measured on day 14; assay type: organism-based; conditions: in vivo, po, 336 h, time 14 day
[29] = Acute toxicity in SPF ICR mouse assessed as abnormal behavior at 2 mg/kg, IG measured for 2 weeks; assay type: organism-based; conditions: in vivo, po, 336 h
[30] = biological target: Voltage-gated inwardly rectifying potassium channel KCNH2 (Homo sapiens, UniProt Q12809); assay: Inhibition of hERG potassium channel stably expressed in CHO cells at -80 mV holding potential by whole-cell patch-clamp analysis; assay type: toxicity, cell-based
[31] = Acute toxicity in SPF ICR mouse assessed as change in body weight at 2 mg/kg, IG measured for 2 weeks; assay type: organism-based; conditions: in vivo, po, 336 h
Cytochrome P450 2D6 = Cytochrome P450 2D6 (Homo sapiens, UniProt P10635); assay: Inhibition of CYP2D6 in human liver microsome preincubated with compound for 10 minutes followed NADPH addition and measured after 15 mins by LC-MS/MS analysis; assay type: ADME, microsomes
[32] = Acute toxicity in SPF ICR mouse assessed as spleen damage at 2 mg/kg, IG measured on day 14; assay type: organism-based; conditions: in vivo, po, 336 h, time 14 day
[33] = biological target: T3, Human immunodeficiency virus type 1 reverse transcriptase; assay: Inhibition of HIV-1 reverse transcriptase
[34] = test system: Human immunodeficiency virus 1; assay: Antiviral activity against HIV-1 harboring L100I mutant infected in human MT4 cells assessed as protection against virus-induced cytopathic effect incubated for 5 days by MTT assay; assay type: functional, organism-based; conditions: Human immunodeficiency virus 1, MT4, 120 h
[35] = Acute toxicity in SPF ICR mouse at 2 mg/kg, IG measured for 2 weeks; assay type: organism-based; conditions: in vivo, po, 336 h

T1 sequence (P08684 whole entry): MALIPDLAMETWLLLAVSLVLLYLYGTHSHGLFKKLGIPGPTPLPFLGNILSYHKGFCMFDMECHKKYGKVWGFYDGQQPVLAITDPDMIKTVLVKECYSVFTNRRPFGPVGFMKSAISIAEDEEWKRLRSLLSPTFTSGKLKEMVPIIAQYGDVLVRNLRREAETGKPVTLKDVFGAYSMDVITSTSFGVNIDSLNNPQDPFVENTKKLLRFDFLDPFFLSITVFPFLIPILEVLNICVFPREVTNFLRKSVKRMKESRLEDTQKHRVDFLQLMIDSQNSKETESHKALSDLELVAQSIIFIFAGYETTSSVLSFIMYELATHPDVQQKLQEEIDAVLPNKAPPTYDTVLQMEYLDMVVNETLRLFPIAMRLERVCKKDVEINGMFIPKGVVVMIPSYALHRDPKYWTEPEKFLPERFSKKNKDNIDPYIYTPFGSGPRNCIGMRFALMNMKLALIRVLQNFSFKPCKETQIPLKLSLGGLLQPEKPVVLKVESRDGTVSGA
Sequence of Cytochrome P450 2D6 (P10635 whole entry): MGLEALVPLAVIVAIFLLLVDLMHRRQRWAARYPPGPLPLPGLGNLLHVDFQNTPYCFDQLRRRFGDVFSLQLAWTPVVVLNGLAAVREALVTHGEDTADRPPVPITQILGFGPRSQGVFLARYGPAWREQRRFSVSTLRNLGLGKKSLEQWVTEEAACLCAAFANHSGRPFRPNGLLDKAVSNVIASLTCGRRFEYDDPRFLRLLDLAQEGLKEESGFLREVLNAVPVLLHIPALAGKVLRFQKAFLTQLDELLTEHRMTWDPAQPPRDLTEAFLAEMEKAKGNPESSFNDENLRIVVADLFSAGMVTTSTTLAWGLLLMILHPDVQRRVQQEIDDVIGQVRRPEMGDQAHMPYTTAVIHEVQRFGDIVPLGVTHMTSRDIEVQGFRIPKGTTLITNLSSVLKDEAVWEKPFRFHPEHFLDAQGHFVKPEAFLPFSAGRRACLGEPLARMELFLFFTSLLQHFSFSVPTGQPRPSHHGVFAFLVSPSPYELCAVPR
Sequence of Cytochrome P450 2C19 (P33261 whole entry): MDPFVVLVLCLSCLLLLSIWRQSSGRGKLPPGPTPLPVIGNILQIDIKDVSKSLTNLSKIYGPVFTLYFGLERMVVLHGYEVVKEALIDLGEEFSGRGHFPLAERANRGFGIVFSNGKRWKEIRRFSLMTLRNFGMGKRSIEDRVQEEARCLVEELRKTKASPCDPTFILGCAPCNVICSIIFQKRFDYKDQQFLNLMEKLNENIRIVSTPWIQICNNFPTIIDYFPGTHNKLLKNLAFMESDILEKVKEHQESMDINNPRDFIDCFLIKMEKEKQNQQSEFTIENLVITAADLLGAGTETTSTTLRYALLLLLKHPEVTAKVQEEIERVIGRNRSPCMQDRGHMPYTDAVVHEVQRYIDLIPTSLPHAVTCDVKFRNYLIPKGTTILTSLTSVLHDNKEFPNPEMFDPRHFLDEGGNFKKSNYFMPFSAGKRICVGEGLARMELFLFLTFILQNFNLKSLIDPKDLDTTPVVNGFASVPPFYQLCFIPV
Sequence of Cytochrome P450 2C9 (P11712 whole entry): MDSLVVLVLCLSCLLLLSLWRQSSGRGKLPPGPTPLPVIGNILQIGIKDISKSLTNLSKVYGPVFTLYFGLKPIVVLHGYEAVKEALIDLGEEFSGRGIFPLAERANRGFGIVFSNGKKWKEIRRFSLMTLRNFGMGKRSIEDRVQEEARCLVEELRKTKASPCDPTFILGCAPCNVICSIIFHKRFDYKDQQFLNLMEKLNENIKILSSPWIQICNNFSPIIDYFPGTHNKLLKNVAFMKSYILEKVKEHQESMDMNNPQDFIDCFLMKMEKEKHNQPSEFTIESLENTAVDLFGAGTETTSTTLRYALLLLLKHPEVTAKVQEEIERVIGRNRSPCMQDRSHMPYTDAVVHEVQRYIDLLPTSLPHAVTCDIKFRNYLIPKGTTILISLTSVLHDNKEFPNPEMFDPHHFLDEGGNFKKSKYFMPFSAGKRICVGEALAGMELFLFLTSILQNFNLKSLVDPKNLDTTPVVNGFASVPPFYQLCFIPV
Sequence of Voltage-gated inwardly rectifying potassium channel KCNH2 (Q12809 whole entry): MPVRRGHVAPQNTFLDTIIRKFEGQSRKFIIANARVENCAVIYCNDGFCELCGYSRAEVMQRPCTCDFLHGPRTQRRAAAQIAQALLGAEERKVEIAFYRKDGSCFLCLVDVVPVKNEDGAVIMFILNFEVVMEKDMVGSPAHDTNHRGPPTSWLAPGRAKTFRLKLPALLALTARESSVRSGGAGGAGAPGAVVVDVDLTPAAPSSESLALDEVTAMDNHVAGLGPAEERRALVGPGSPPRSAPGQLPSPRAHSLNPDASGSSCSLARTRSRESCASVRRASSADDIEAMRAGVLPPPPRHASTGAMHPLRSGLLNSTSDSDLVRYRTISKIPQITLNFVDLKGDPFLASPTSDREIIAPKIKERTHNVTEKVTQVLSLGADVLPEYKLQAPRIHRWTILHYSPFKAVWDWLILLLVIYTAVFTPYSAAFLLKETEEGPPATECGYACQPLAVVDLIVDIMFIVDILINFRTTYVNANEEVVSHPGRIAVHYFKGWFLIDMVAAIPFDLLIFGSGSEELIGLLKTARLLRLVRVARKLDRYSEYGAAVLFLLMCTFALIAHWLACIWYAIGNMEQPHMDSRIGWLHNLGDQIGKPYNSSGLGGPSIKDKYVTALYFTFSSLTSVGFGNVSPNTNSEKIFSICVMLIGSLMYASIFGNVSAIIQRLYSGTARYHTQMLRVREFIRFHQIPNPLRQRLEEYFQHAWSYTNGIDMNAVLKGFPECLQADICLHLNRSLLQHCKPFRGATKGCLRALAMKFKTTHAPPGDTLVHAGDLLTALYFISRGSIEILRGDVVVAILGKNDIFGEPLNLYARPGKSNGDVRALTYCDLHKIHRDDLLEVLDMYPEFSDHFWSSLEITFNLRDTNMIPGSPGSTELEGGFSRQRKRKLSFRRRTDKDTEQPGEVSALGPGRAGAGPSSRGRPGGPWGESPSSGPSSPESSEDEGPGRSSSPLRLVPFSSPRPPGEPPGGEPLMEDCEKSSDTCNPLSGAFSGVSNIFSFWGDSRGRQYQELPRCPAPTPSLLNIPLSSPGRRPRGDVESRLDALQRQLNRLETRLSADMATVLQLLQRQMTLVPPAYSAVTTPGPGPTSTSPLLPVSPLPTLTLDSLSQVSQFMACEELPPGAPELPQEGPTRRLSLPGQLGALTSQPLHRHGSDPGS

With `Cc1cc(-c2ccc(C#N)cc2)cc(C)c1Oc1nc(NC2CCN(Cc3ccc(S(N)(=O)=O)cc3)CC2)ncc1CO` the Activity [1] was “Non-toxic”, the Activity [2] was “Non-toxic” and the Activity [3] was “Non-toxic”. For the same molecule, the EC50 [4] was 15 nM, the EC50 [5] was 45 nM and the Activity [6] was “Non-toxic”. The EC50 [7] was 9 nM, the CC50 at 120 h [8] was 18200 nM and the Activity [9] was “Non-toxic”. The solubility at 24 h [10] was < 1 µg/mL, the EC50 [11] was 8 nM and the Activity [12] was “Non-toxic”. The Activity [13] was “Non-toxic”, the solubility at 24 h [14] was < 1 µg/mL and the Activity [15] was “Non-toxic”. The IC50 (Cytochrome P450 2C9) was 17600 nM, the solubility at 24 h [16] was 3520 µg/mL (≈ 5890 µM) and the Activity [17] was “Non-toxic”. The IC50 (Cytochrome P450 2C19) was 25700 nM, the IC50 (Cytochrome P450 3A4 [18]) was 50000 nM and the Activity [19] was “Non-toxic”. The EC50 [20] was 10 nM, the solubility at 24 h [21] was < 1 µg/mL and the selectivity ratio [22] was 6540. The IC50 (Cytochrome P450 1A2) was 50000 nM, the EC50 [23] was 23 nM and the IC50 (Cytochrome P450 3A4 [24]) was 50000 nM. The IC50 [25] was 293 nM, the Activity [26] was “Non-toxic” and the Activity [27] was “Non-toxic”. For the same molecule, the Activity [28] was “Non-toxic”, the Activity [29] was “Non-toxic” and the IC50 [30] was 20000 nM. For the same molecule, the Activity [31] was “Non-toxic”, the IC50 (Cytochrome P450 2D6) was 50000 nM and the Activity [32] was “Non-toxic”. For the same molecule, the EC50 [33] was 3 nM, the EC50 [34] was 9 nM and the Activity [35] was “Non-toxic”.
